Test results published in US20260364080A1, “PYRAZOLO-PYRIMIDINONE COMPOUNDS FOR USE IN METHODS OF INHIBITING WEE1 A KINASE” (Acrivon Therapeutics, Inc., priority 2023, published 2026).

Key:
[1] = molecular target: T1, Myt1 kinase (recombinant PMYT-1) (Homo sapiens, UniProt Q99640); assay: Myt1 kinase binding assay (LanthaScreen Eu Kinase Binding Assay); details: 3 nM tracer 178, 2.5 nM PMYT-1, 1 nM Eu-labeled antibody; read-out: Myt1 kinase Binding IC50
T1 construct: full length PMYT-1 was expressed by baculovirus in insect cells; purchased Invitrogen A30984; host or cells: insect cells (baculovirus)
T1 sequence (Q99640 1-499): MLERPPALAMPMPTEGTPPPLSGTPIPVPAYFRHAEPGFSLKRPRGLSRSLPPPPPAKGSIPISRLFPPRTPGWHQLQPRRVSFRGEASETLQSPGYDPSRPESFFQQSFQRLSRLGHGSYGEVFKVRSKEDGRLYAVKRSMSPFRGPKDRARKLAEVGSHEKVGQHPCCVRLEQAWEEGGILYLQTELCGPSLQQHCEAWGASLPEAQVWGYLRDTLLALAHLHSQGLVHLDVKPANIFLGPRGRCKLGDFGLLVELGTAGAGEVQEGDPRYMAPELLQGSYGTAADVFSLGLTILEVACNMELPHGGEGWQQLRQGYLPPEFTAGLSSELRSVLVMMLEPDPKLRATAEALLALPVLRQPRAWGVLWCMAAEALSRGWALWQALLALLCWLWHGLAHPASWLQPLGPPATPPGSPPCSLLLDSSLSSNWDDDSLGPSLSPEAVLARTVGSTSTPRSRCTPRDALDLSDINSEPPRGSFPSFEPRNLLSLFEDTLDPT
Method in brief: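 Compound binding to Myt1 kinase was assessed using the LanthaScreen Eu Kinase Binding Assay. This europium-based binding format was applied to quantify how strongly each compound bound to the Myt1 enzyme, and the binding affinity was reported for each compound as an IC50 value.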

[2] = molecular target: T2, Wee1A kinase (CDK1 Tyr15 phosphorylation in ACHN renal cell carcinoma cells) (Homo sapiens, UniProt P30291); assay: High-content imaging of pCdk1 Y15, Wee1A kinase target engagement in ACHN cells; assay type: cell-based; details: 4 h treatment, nuclear positivity for pCdk1 Y15 vs DMSO control, read-out: CDK1 Tyr15 Phosphorylation EC50
T2 construct: pCDK1 Tyr15 immunofluorescence read-out
Method in brief: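 EC50 values come from the per-well fraction of cells with nuclear pCdk1 Y15 staining, normalised to DMSO control, by automated immunofluorescence imaging. Cells were ACHN renal carcinoma, treated 4 h with compound at 7–5,000 nM or 0.3–200 nM.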

ACHN cells = assay: Cell Titer Glo viability assay, ACHN cells; assay type: cell-based; details: Homo sapiens, 144 h, absolute EC50
Experimental: Each of an ACHN renal cell carcinoma cell line (ATCC) and a DAOY medulloblastoma cell line, and an A427 lung cancer line were cultured in Minimum Essential Medium Eagle supplemented with 10% fetal calf serum (Sigma), 1% Penicillin-Streptomycin and 10 mM HEPES buffer (HyClone). Cell cultures were kept in a humidified incubator at 37 °C and 5% CO2. Cells were routinely tested for Mycoplasma contamination.
ACHN cells, DAOY cells, or A427 cells were seeded at a density of 400, 250, or 500 cells per well respectively, in tissue culture treated 384 well plates (Corning Costar). After overnight incubation, cells were treated with drugs at concentrations ranging from 17 to 10 000 nM. Viability compared to untreated control was assessed at 144 h using Cell Titer Glo assay 2.0 (Promega). […] “NT” means the compounds was not tested in the indicated cells.

[3] = molecular target: T3, recombinant human Wee1A kinase (Homo sapiens, UniProt P30291); assay: Wee1A kinase binding assay (LanthaScreen Eu time-resolved FRET); details: 30 nM tracer 178, 5 nM Wee1A kinase, 2 nM Eu-labeled antibody; 60 minutes at room temperature; read-out: Wee1A kinase Binding IC50
T3 construct: full length Wee1 kinase was expressed by baculovirus in insect cells; purchased Invitrogen PV3817; host or cells: insect cells (baculovirus)
Method in brief: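 Full-length, baculovirus-expressed GST-tagged Wee1A (5 nM) was mixed with 2 nM Eu-anti-GST antibody, 30 nM kinase tracer 178 and compound (1% DMSO). Buffer was 50 mM HEPES pH 7.5, 10 mM MgCl2, 1 mM EGTA, 0.01% Brij-35, incubated 60 min at room temperature. TR-FRET 665/615 nm emission ratios from duplicates were curve-fitted.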

T3 sequence (P30291 whole entry): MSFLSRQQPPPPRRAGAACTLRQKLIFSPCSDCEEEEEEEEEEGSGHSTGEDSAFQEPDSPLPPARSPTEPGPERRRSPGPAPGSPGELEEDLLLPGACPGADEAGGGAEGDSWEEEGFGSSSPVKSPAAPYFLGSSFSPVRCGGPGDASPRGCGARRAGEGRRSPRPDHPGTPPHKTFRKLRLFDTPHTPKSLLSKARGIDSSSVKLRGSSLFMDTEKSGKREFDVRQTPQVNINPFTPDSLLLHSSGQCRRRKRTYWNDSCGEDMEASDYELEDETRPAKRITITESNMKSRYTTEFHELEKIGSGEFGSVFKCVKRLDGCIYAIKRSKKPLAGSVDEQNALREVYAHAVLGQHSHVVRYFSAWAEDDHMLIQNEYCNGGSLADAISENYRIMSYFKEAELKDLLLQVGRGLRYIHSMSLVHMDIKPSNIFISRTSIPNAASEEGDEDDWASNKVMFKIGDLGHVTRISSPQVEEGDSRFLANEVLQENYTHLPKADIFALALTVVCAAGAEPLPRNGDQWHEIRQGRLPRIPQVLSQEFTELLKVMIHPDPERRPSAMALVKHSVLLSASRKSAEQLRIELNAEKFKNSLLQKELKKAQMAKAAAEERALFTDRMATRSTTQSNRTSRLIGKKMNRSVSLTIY
T2 sequence (P30291 whole entry): as above

C=CCn1c(=O)c2cnc(Nc3ccc(OCC(F)(F)F)cc3)nc2n1-c1cccc(OC2CCNCC2)n1 [Compound 227, 2-allyl-1-[6-(4-piperidyloxy)-2-pyridyl]-6-[p-(2,2,2-trifluoroethoxy)phenylamino]-1,2-dihydro-3H-1,2,5,7-tetraazainden-3-one]
IC50 [1]: < 20 nM | EC50 [2]: < 100 nM | EC50 (ACHN cells): ≤ 100 nM | IC50 [3]: < 10 nM

CCn1c(=O)c2cnc(Nc3ccc4c(c3)ncn4C)nc2n1-c1cccc(OC2CCN(C)CC2)n1 [Compound 235, 2-ethyl-6-((1-methyl-1H-benzo[d]imidazol-5-yl)amino)-1-(6-((1-methylpiperidin-4-yl)oxy)pyridin-2-yl)-1,2-dihydro-3H-pyrazolo[3,4-d]pyrimidin-3-one]
IC50 [1]: 20 to 100 nM | EC50 [2]: < 100 nM | EC50 (ACHN cells): ≤ 100 nM | IC50 [3]: < 10 nM

C=CCn1c(=O)c2cnc(Nc3ccc4ccncc4c3)nc2n1-c1cccc(OC2CCNCC2)n1 [Compound 240, 2-allyl-6-(7-isoquinolylamino)-1-[6-(4-piperidyloxy)-2-pyridyl]-1,2-dihydro-3H-1,2,5,7-tetraazainden-3-one]
IC50 [1]: 20 to 100 nM | EC50 [2]: 100 to 500 nM | EC50 (ACHN cells): 100 to 500 nM | IC50 [3]: < 10 nM

C=CCn1c(=O)c2cnc(Nc3ccc4scnc4c3)nc2n1-c1cccc(OC2CCNCC2)n1 [Compound 246, 2-allyl-6-(benzo[d]thiazol-5-ylamino)-1-(6-(piperidin-4-yloxy)pyridin-2-yl)-1,2-dihydro-3H-pyrazolo[3,4-d]pyrimidin-3-one]
IC50 [1]: < 20 nM | EC50 [2]: < 100 nM | EC50 (ACHN cells): 100 to 500 nM | IC50 [3]: < 10 nM

C=CCn1c(=O)c2cnc(Nc3ccc(OCC(F)(F)F)cc3)nc2n1-c1ccnc(OC2CCNCC2)n1 [Compound 252, 2-allyl-1-(2-(piperidin-4-yloxy)pyrimidin-4-yl)-6-((4-(2,2,2-trifluoroethoxy)phenyl)amino)-1,2-dihydro-3H-pyrazolo[3,4-d]pyrimidin-3-one]
IC50 [1]: 20 to 100 nM | EC50 [2]: < 100 nM | EC50 (ACHN cells): 100 to 500 nM | IC50 [3]: < 10 nM

C=CCn1c(=O)c2cnc(Nc3ccc(OCC(C)C)cc3)nc2n1-c1cccc(OC2CCNCC2)n1 [Compound 256, 2-allyl-6-((4-isobutoxyphenyl)amino)-1-(6-(piperidin-4-yloxy)pyridin-2-yl)-1,2-dihydro-3H-pyrazolo[3,4-d]pyrimidin-3-one]
IC50 [1]: < 20 nM | EC50 [2]: < 100 nM | EC50 (ACHN cells): ≤ 100 nM | IC50 [3]: < 10 nM

CCn1c(=O)c2cnc(Nc3ccc4c(cnn4C)c3)nc2n1-c1cccc(NC2CCN(C)CC2)n1 [Compound 288, 2-ethyl-6-[(1-methyl-1H-indazol-5-yl)amino]-1-{6-[(1-methylpiperidin-4-yl)amino]pyridin-2-yl}-1H,2H,3H-pyrazolo[3,4-d]pyrimidin-3-one]
IC50 [1]: > 500 nM | EC50 [2]: < 100 nM | EC50 (ACHN cells): 100 to 500 nM | IC50 [3]: < 10 nM

CCn1c(=O)c2cnc(Nc3cccc(C)c3)nc2n1-c1cccc(OC2CCN(C)CC2)n1 [Compound 289, 2-ethyl-1-[6-(1-methyl-4-piperidyloxy)-2-pyridyl]-6-m-toluidino-1,2-dihydro-3H-1,2,5,7-tetraazainden-3-one]
IC50 [1]: 100 to 500 nM | EC50 [2]: < 100 nM | EC50 (ACHN cells): 100 to 500 nM | IC50 [3]: < 10 nM

CCn1c(=O)c2cnc(Nc3ccc(F)cc3)nc2n1-c1cccc(OC2CCN(C)CC2)n1 [Compound 290, 2-ethyl-6-(p-fluorophenylamino)-1-[6-(1-methyl-4-piperidyloxy)-2-pyridyl]-1,2-dihydro-3H-1,2,5,7-tetraazainden-3-one]
IC50 [1]: 100 to 500 nM | EC50 [2]: 100 to 500 nM | EC50 (ACHN cells): 100 to 500 nM | IC50 [3]: < 10 nM

C=CCn1c(=O)c2cnc(Nc3cncc(C)c3)nc2n1-c1cccc(OC2CCN(C)CC2)n1 [Compound 292, 1-{6-[(1-methylpiperidin-4-yl)oxy]pyridin-2-yl}-6-[(5-methylpyridin-3-yl)amino]-2-(prop-2-en-1-yl)-1H,2H,3H-pyrazolo[3,4-d]pyrimidin-3-one]
IC50 [1]: 20 to 100 nM | EC50 [2]: < 100 nM | EC50 (ACHN cells): ≤ 100 nM | IC50 [3]: < 10 nM

CCn1c(=O)c2cnc(Nc3cccc(C)c3)nc2n1-c1cccc(OC2CCNCC2)n1 [Compound 298, 2-ethyl-1-[6-(4-piperidyloxy)-2-pyridyl]-6-m-toluidino-1,2-dihydro-3H-1,2,5,7-tetraazainden-3-one]
IC50 [1]: 100 to 500 nM | EC50 [2]: 100 to 500 nM | EC50 (ACHN cells): 100 to 500 nM | IC50 [3]: < 10 nM

C=CCn1c(=O)c2cnc(Nc3ccc(C#N)cc3)nc2n1-c1cccc(OC2CCN(C)CC2)n1 [Compound 301, p-{2-allyl-1-[6-(1-methyl-4-piperidyloxy)-2-pyridyl]-3-oxo-1,2-dihydro-3H-1,2,5,7-tetraazainden-6-ylamino}benzonitrile]
IC50 [1]: 20 to 100 nM | EC50 [2]: < 100 nM | EC50 (ACHN cells): ≤ 100 nM | IC50 [3]: < 10 nM

C=CCn1c(=O)c2cnc(Nc3ccc(F)cc3)nc2n1-c1cccc(OC2CCNCC2)n1 [Compound 304, 2-allyl-6-(p-fluorophenylamino)-1-[6-(4-piperidyloxy)-2-pyridyl]-1,2-dihydro-3H-1,2,5,7-tetraazainden-3-one]
IC50 [1]: 20 to 100 nM | EC50 [2]: < 100 nM | EC50 (ACHN cells): 100 to 500 nM | IC50 [3]: < 10 nM

C=CCn1c(=O)c2cnc(Nc3cccc(C#N)c3)nc2n1-c1cccc(OC2CCN(C)CC2)n1 [Compound 305, m-{2-allyl-1-[6-(1-methyl-4-piperidyloxy)-2-pyridyl]-3-oxo-1,2-dihydro-3H-1,2,5,7-tetraazainden-6-ylamino}benzonitrile]
IC50 [1]: 20 to 100 nM | EC50 [2]: < 100 nM | EC50 (ACHN cells): ≤ 100 nM | IC50 [3]: < 10 nM

CCn1c(=O)c2cnc(Nc3ccc4c(cnn4C)c3)nc2n1-c1cccc(OC2CCNCC2)n1 [Compound 306, 2-ethyl-6-(1-methyl-1H-indazol-5-ylamino)-1-[6-(4-piperidyloxy)-2-pyridyl]-1,2-dihydro-3H-1,2,5,7-tetraazainden-3-one]
IC50 [1]: 20 to 100 nM | EC50 [2]: 100 to 500 nM | EC50 (ACHN cells): 100 to 500 nM | IC50 [3]: < 10 nM

CCn1c(=O)c2cnc(Nc3ccc(C#N)cc3)nc2n1-c1cccc(OC2CCN(C)CC2)n1 [Compound 310, p-{2-ethyl-1-[6-(1-methyl-4-piperidyloxy)-2-pyridyl]-3-oxo-1,2-dihydro-3H-1,2,5,7-tetraazainden-6-ylamino}benzonitrile]
IC50 [1]: 20 to 100 nM | EC50 [2]: 100 to 500 nM | EC50 (ACHN cells): 100 to 500 nM | IC50 [3]: < 10 nM

C=CCn1c(=O)c2cnc(Nc3ccc(F)cc3)nc2n1-c1ccnc(NC2CCN(C)CC2)n1 [Compound 312, 2-allyl-6-(p-fluorophenylamino)-1-[2-(1-methyl-4-piperidylamino)-4-pyrimidinyl]-1,2-dihydro-3H-1,2,5,7-tetraazainden-3-one]
IC50 [1]: 100 to 500 nM | EC50 [2]: < 100 nM | EC50 (ACHN cells): 100 to 500 nM | IC50 [3]: < 10 nM

C=CCn1c(=O)c2cnc(Nc3ccc(OCC(F)(F)F)cc3)nc2n1-c1ccnc(NC2CCN(C)CC2)n1 [Compound 314, 2-allyl-1-[2-(1-methyl-4-piperidylamino)-4-pyrimidinyl]-6-[p-(2,2,2-trifluoroethoxy)phenylamino]-1,2-dihydro-3H-1,2,5,7-tetraazainden-3-one]
IC50 [1]: 20 to 100 nM | EC50 [2]: < 100 nM | EC50 (ACHN cells): ≤ 100 nM | IC50 [3]: < 10 nM
